Measurements published in patent US20130266636A1, “METHODS FOR BLOCKING CELL PROLIFERATION AND TREATING DISEASES AND CONDITIONS RESPONSIVE TO CELL GROWTH INHIBITION” (THE REGENTS OF THE UNIVERSITY OF CALIFORNIA, priority 2010, published 2013).
“Also recorded” adds a separate entry of the source.

Experiments:
PKC = settings: cited from earlier work
NCI-60 panel = NCI-60 panel growth inhibition, overall; format: cell-based, human
Description: FIG. 8 illustrates […] panel showing the half maximal growth inhibitory concentration of KG5 in […] human cancer cell lines.
(§1) Table 1 summarizes KG5's effect in 60 NCI cancer cell lines: the NCI-60 panel showing the half maximal growth inhibitory concentration of KG5 and the RAS and BRAF status in 60 human cancer cell lines.

HCT-116 cells = experiment: G2/M arrest in HCT-116 cells expressing WT or S338D CRAF; format: cell-based, human; settings: 1 μM KG5, 18 hours
Flt-3 = Flt-3 (Homo sapiens, UniProt P36888); settings: cited from earlier work
Sequence of Flt-3 (P36888 27-993, species assumed): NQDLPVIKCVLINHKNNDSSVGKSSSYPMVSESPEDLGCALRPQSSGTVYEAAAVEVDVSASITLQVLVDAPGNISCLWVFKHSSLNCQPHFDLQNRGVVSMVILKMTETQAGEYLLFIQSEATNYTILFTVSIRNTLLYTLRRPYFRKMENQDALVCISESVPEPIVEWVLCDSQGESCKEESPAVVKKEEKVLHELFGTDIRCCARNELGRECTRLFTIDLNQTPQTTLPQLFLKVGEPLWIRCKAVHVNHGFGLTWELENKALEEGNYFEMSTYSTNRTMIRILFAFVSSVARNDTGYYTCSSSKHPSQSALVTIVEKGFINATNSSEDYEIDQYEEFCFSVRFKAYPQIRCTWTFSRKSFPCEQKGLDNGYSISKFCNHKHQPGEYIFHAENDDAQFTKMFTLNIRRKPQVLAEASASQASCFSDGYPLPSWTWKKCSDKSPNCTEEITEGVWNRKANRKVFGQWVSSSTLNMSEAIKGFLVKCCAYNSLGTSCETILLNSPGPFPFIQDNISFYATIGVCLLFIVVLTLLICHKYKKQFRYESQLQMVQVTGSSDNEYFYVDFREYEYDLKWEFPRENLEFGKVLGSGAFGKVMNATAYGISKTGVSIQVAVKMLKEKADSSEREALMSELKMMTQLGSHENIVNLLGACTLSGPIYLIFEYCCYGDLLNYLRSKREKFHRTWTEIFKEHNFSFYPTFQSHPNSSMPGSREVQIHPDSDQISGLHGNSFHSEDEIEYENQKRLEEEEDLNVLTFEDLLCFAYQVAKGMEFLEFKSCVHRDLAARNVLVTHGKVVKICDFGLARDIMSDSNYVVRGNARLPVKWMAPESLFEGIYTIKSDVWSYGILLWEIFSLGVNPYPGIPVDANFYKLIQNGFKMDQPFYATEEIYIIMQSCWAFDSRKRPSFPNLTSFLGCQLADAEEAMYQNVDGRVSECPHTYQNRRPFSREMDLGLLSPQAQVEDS

T-47D = experiment: NCI-60 panel growth inhibition; format: cell-based; settings: Homo sapiens, T47D; Breast Cancer; mutated RAS Yes; mutated BRAF No
Description: as §1

SNB-75 = experiment: NCI-60 panel growth inhibition; format: cell-based; settings: Homo sapiens, CNS Cancer, mutated RAS No, mutated BRAF No
Description: as §1

RXF 393 = experiment: NCI-60 panel growth inhibition; format: cell-based; settings: Homo sapiens, Renal Cancer, mutated RAS No, mutated BRAF No
Description: as §1

SK-MEL-28 = experiment: NCI-60 panel growth inhibition; format: cell-based; settings: Homo sapiens, Melanoma, mutated RAS No, mutated BRAF Yes
Description: as §1

HL-60(TB) = experiment: NCI-60 panel growth inhibition; format: cell-based; settings: Homo sapiens, Leukemia, mutated RAS Yes, mutated BRAF No
Description: as §1

HCT-15 = experiment: NCI-60 panel growth inhibition; format: cell-based; settings: Homo sapiens, Colon Cancer, mutated RAS Yes, mutated BRAF Yes
Description: as §1

HCC-2998 = experiment: NCI-60 panel growth inhibition; format: cell-based; settings: Homo sapiens, Colon Cancer, mutated RAS No, mutated BRAF No
Description: as §1

DU-145 = experiment: NCI-60 panel growth inhibition; format: cell-based; settings: Homo sapiens, Prostate Cancer, mutated RAS No, mutated BRAF No
Description: as §1

SK-OV-3 = experiment: NCI-60 panel growth inhibition; format: cell-based; settings: Homo sapiens, Ovarian Cancer, mutated RAS No, mutated BRAF No
Description: as §1

OVCAR-8 = experiment: NCI-60 panel growth inhibition; format: cell-based; settings: Homo sapiens, Ovarian Cancer, mutated RAS No, mutated BRAF No
Description: as §1

MDA-MB-435 = experiment: NCI-60 panel growth inhibition; format: cell-based; settings: Homo sapiens, Melanoma, mutated RAS No, mutated BRAF Yes
Description: as §1

MCF7 = experiment: NCI-60 panel growth inhibition; format: cell-based; settings: Homo sapiens, Breast Cancer, mutated RAS No, mutated BRAF No
Description: as §1

CCRF-CEM = experiment: NCI-60 panel growth inhibition; format: cell-based; settings: Homo sapiens, Leukemia, mutated RAS Yes, mutated BRAF No
Description: as §1

TK-10 = experiment: NCI-60 panel growth inhibition; format: cell-based; settings: Homo sapiens, Renal Cancer, mutated RAS No, mutated BRAF No
Description: as §1

NCI-H23 = experiment: NCI-60 panel growth inhibition; format: cell-based; settings: Homo sapiens, NSC Lung Cancer, mutated RAS Yes, mutated BRAF No
Description: as §1

SF-539 = experiment: NCI-60 panel growth inhibition; format: cell-based; settings: Homo sapiens, CNS Cancer, mutated RAS No, mutated BRAF No
Description: as §1

HS 578T = experiment: NCI-60 panel growth inhibition; format: cell-based; settings: Homo sapiens, Breast Cancer, mutated RAS Yes, mutated BRAF No
Description: as §1

A549/ATCC = experiment: NCI-60 panel growth inhibition; format: cell-based; settings: Homo sapiens, NSC Lung Cancer, mutated RAS Yes, mutated BRAF No
Description: as §1

HT29 = experiment: NCI-60 panel growth inhibition; format: cell-based; settings: Homo sapiens, HT-29; Colon Cancer; mutated RAS No; mutated BRAF Yes
Description: as §1

PC-3 = experiment: NCI-60 panel growth inhibition; format: cell-based; settings: Homo sapiens, Prostate Cancer, mutated RAS No, mutated BRAF No
Description: as §1

OVCAR-5 = experiment: NCI-60 panel growth inhibition; format: cell-based; settings: Homo sapiens, Ovarian Cancer, mutated RAS Yes, mutated BRAF No
Description: as §1

[1] = molecular target: T1, phospho-S338 c-RAF (CRAF) (Homo sapiens, UniProt P04049); experiment: Phospho-S338 CRAF staining in orthotopic MDA-MB-231 breast cancer tissues; format: in vivo, mice; settings: systemic KG5 50 mg/kg i.p. bid, 3 days
T1 construct: immunofluorescent staining of phospho-S338 c-RAF (CRAF) in orthotopic breast cancer tissues untreated or systemically treated with KG5; from tissue; host or cells: orthotopic MDA-MB-231 tumours in nude mice
T1 sequence (P04049 whole entry): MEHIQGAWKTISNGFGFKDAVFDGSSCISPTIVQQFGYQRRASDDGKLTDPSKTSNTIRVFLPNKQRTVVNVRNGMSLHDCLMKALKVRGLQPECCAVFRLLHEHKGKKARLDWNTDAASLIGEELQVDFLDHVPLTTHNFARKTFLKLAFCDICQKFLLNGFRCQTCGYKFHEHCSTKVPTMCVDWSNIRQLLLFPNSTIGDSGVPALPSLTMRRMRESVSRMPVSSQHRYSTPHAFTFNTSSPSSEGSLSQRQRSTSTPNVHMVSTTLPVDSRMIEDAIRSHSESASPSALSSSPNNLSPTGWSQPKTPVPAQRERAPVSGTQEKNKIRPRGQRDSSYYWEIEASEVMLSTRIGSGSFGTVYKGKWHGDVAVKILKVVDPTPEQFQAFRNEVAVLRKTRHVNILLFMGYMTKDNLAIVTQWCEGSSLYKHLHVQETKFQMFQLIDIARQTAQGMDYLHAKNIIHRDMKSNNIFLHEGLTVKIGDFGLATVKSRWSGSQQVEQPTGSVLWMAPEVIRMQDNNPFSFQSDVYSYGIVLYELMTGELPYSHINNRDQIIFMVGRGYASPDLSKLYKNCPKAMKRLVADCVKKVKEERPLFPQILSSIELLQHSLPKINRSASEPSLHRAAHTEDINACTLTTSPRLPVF
Protocol: FIG. 4 illustrates the effect of KG5 on orthotopic MDA-MB-231 breast cancer cells after three days, as further discussed in Example 1, below.
FIG. 4 illustrates an immunofluorescent staining of phospho-S338 c-RAF (CRAF) in orthotopic breast cancer tissues untreated or systemically treated with KG5 for 3 days.
Tumors were generated by injection of MDA-MB-231 human breast carcinoma cells (2×10^6 tumor cells in 50 μl of sterile PBS) into the mammary fatpad of 6-8 week old female nude mice. Tumors were established for 2 weeks before beginning dosing. Mice were dosed with vehicle (10% HS-15) or 50 mg/kg KG5 (i.p. bid) for 3 days prior to harvest. All research was conducted under protocols approved by the UCSD animal subjects committee and in accordance with the guidelines set forth in the NIH Guide for the Care and Use of Laboratory Animals.
Immunostaining was performed according to the manufacturer's recommendations (Vector Labs), on […] sections of paraffin-embedded tumors from the orthotopic xenograft breast and brain cancer mouse models, the subcutaneous tumor mouse model or from human patients diagnosed with breast or brain cancer (as approved by the Institutional Review Board at University of California, San Diego). Antigen retrieval was performed in citrate buffer pH 6.0 at 95° C. for 20 min. […]

PDGFR = settings: cited from earlier work

SMILES: CSc1nc(N)cc(Oc2ccc(-c3nnc(Nc4cccc(C(F)(F)F)c4)[nH]3)cc2)n1 [KG5]
- PKC (PKC): no impact
- growth inhibitory activity against the NCI-60 panel (NCI-60 panel): inhibits the growth of several human cancer cell lines; also recorded: broad growth inhibitory activity
- G2/M arrest in cells expressing phospho-mimetic S338D CRAF (HCT-116 cells): showed resistance to KG5
- inhibition of Flt-3 (Flt-3): inhibits
- GI50 (T-47D): 347 nM
- GI50 (SNB-75): 245 nM
- GI50 (RXF 393): 166 nM
- GI50 (SK-MEL-28): 1580 nM
- GI50 (HL-60(TB)): 407 nM
- GI50 (HCT-15): 490 nM
- GI50 (HCC-2998): 1410 nM
- GI50 (DU-145): 457 nM
- GI50 (SK-OV-3): 562 nM
- GI50 (OVCAR-8): 479 nM
- GI50 (MDA-MB-435): 195 nM
- GI50 (MCF7): 355 nM
- GI50 (CCRF-CEM): 380 nM
- GI50 (TK-10): 692 nM
- GI50 (NCI-H23): 525 nM
- GI50 (SF-539): 347 nM
- GI50 (HS 578T): 437 nM
- GI50 (A549/ATCC): 501 nM
- GI50 (HT29): 363 nM
- GI50 (PC-3): 282 nM
- GI50 (OVCAR-5): 1550 nM
- phospho-S338 CRAF in orthotopic breast cancer tissues [1]: qualitative decrease in phospho-5338 RAF
- phospho-S338 CRAF in orthotopic breast cancer tissues ([1]; 50 mg/kg): inhibits serine 338 phosphorylation of CRAF
- inhibition of PDGFR (PDGFR): inhibits
